The source of these data is PubChem BioAssay (NCI).

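Where inhibition never reached the appropriate level, the endpoint shown equals the highest concentration tested. Otherwise, values were interpolated linearly from a five-concentration, 48-hour dose response in 96-well plates. TGI denotes the concentration required for complete inhibition of growth.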

Test systems include EKVX NSCLC; K-562 leukemia; SF-539 CNS; LOX IMVI melanoma; A498 renal; HT29 colon; HCT-15 colon; OVCAR-4 ovarian; SR leukemia; SK-MEL-5 melanoma.
Test in all cases: NCI tumour cell line growth inhibition, 48 h

As to `CC12c3c4ccc(C=O)c3Oc3ccc(C=O)c(c31)Oc1ccc(C=O)c(c12)O4`, the TGI in the assay on EKVX NSCLC, with K-562 leukemia, in the assay with SF-539 CNS, in the assay on LOX IMVI melanoma, with A498 renal and with HT29 colon was above 25 µM each time. Also, the TGI in the assay on HCT-15 colon, in the assay with OVCAR-4 ovarian and in the assay with SR leukemia was above 25 µM in each case.
As to `O=C(CC(=O)Nc1ccccc1)NNC(Sc1ccccc1)c1cc(N=Nc2ccc(Br)cc2)ccc1O` (centres undefined), the TGI with EKVX NSCLC is above 10 µM; in the assay on K-562 leukemia, 6.27 µM; in the assay with SF-539 CNS it was 7.91 µM; with LOX IMVI melanoma it was above 10 µM; in the assay with A498 renal it was 5.84 µM; with HT29 colon it was above 10 µM. Also, the TGI in the assay with SK-MEL-5 melanoma was 4.6 µM; with HCT-15 colon it was above 10 µM; with OVCAR-4 ovarian, above 10 µM; with SR leukemia, above 10 µM.
`COc1cc(O)c2c(=O)c(OC)c(-c3ccc(OC)c(O)c3)oc2c1`: the TGI is above 100 µM with EKVX NSCLC; above 100 µM in the assay on K-562 leukemia; above 100 µM in the assay on SF-539 CNS; above 100 µM in the assay on LOX IMVI melanoma; 15.3 µM in the assay on A498 renal; above 100 µM in the assay with HT29 colon. The TGI in the assay on SK-MEL-5 melanoma, in the assay with HCT-15 colon, with OVCAR-4 ovarian and in the assay on SR leukemia was above 100 µM each time.
As for `COc1cc(Nc2ccc3c(c2)CCC3)nc(OC)n1`, the TGI was above 100 µM with EKVX NSCLC; above 100 µM with SF-539 CNS; above 100 µM with LOX IMVI melanoma; above 100 µM with A498 renal; 51.4 µM in the assay with HT29 colon; 62.3 µM in the assay with SK-MEL-5 melanoma. In addition, the TGI is above 100 µM in the assay with HCT-15 colon, above 100 µM with OVCAR-4 ovarian and 77.8 µM in the assay with SR leukemia.
As to `CC(C)C1=CC23CCC4C(C)(C(=O)O)CCCC4(C)C2CC1C1C(=O)N(CCCCCCN2C(=O)C4C5CC6C7(C)CCCC(C)(C(=O)O)C7CCC6(C=C5C(C)C)C4C2=O)C(=O)C13` (centres undefined), the TGI in the assay on EKVX NSCLC was 21.6 µM; in the assay on K-562 leukemia, above 100 µM; in the assay with A498 renal, 24.3 µM; with HT29 colon, 13.8 µM; with SK-MEL-5 melanoma, 26.9 µM; in the assay on HCT-15 colon, 30.4 µM. The TGI was determined as 34.3 µM in the assay with OVCAR-4 ovarian and 34.1 µM with SR leukemia.
In the case of `COc1ccc(C(=O)NCCN(C)C)c2nc3ccccc3cc12`, the TGI in the assay on EKVX NSCLC amounted to 6.68 µM; with K-562 leukemia, 12.5 µM; in the assay on SF-539 CNS it was 8.16 µM; in the assay with LOX IMVI melanoma, 1.74 µM; in the assay on A498 renal it was 3.76 µM; in the assay on HT29 colon, 5.6 µM. The TGI with SK-MEL-5 melanoma is 2.54 µM; with HCT-15 colon it was 7.22 µM; in the assay on OVCAR-4 ovarian, 6.49 µM; in the assay on SR leukemia, 1.5 µM.
Take `O=c1onc2n1-c1cc(Cl)ccc1C(=S)N1CSCC21` (centres undefined): the TGI in the assay on EKVX NSCLC is above 100 µM; with K-562 leukemia, 63.8 µM; in the assay with LOX IMVI melanoma, above 100 µM; with A498 renal, above 100 µM; with HT29 colon it was above 100 µM; with SK-MEL-5 melanoma, above 100 µM. Also, the TGI in the assay on HCT-15 colon, in the assay with OVCAR-4 ovarian and with SR leukemia was above 100 µM throughout.
With `CCOC(=O)CC/C(=N/Nc1ccc(Cl)cc1[N+](=O)[O-])C(=O)OCC`, the TGI in the assay with EKVX NSCLC, in the assay on K-562 leukemia, in the assay on SF-539 CNS, with LOX IMVI melanoma, in the assay on A498 renal and in the assay on HT29 colon was above 100 µM in each case. For the same molecule, the TGI in the assay on SK-MEL-5 melanoma, with HCT-15 colon, in the assay on OVCAR-4 ovarian and in the assay with SR leukemia was above 100 µM throughout.
Turning to `CO/N=C(/C(=O)OC)c1ccccc1COc1ccccc1C(F)(F)F`, the TGI in the assay with EKVX NSCLC is 62.9 µM; in the assay on K-562 leukemia it was above 100 µM; in the assay with SF-539 CNS, 59.2 µM; in the assay on A498 renal it was above 100 µM; in the assay on HT29 colon, above 100 µM; in the assay with SK-MEL-5 melanoma, 25.8 µM. The TGI in the assay with HCT-15 colon is above 100 µM; with OVCAR-4 ovarian, 57.9 µM; in the assay with SR leukemia it was 79.2 µM.
For the molecule `C=C1C(=O)[C@@]23CC[C@@H]4[C@@]5(C)CCC[C@@]4(OC5=O)[C@@]2(C)CC[C@@H]1C3`, the TGI with EKVX NSCLC is 11.8 µM; with SF-539 CNS, 6.3 µM; in the assay with LOX IMVI melanoma, 2.96 µM; in the assay on A498 renal, 11.8 µM; in the assay on HT29 colon, 10.6 µM; in the assay with SK-MEL-5 melanoma it was 3.49 µM. Moreover, the figures for the TGI with HCT-15 colon, with OVCAR-4 ovarian and in the assay with SR leukemia were 2.44 µM, 5.28 µM and above 100 µM, respectively.
`[N-]=[N+]=CC(=O)OC(CCl)CCl`: the TGI with EKVX NSCLC, in the assay with K-562 leukemia, in the assay with LOX IMVI melanoma, with A498 renal, in the assay with HT29 colon and in the assay on SK-MEL-5 melanoma was above 100 µM in each case. Besides, the TGI in the assay on HCT-15 colon, in the assay on OVCAR-4 ovarian and in the assay on SR leukemia was above 100 µM in each case.
Regarding `C=C(C)CNCCN`, the TGI in the assay on EKVX NSCLC, in the assay with K-562 leukemia, in the assay on LOX IMVI melanoma, with A498 renal, in the assay with HT29 colon and in the assay with SK-MEL-5 melanoma was above 100 µM each time. In addition, the TGI with HCT-15 colon, in the assay with OVCAR-4 ovarian and with SR leukemia was above 100 µM each time.
Consider `CCOC(=O)/C(C(C)=O)=C(\OC(C)=O)c1ccncc1C(=O)O`, for which the TGI in the assay on EKVX NSCLC, with K-562 leukemia, in the assay with SF-539 CNS, with LOX IMVI melanoma, with A498 renal and with HT29 colon was above 100 µM each time. Moreover, the TGI in the assay on HCT-15 colon, in the assay on OVCAR-4 ovarian and in the assay with SR leukemia was above 100 µM each time.
Consider `Cn1c2ccccc2c2c(=S)c3ccccc3ccc21`, for which the TGI in the assay with EKVX NSCLC, in the assay with K-562 leukemia, in the assay with LOX IMVI melanoma, in the assay with A498 renal, in the assay with HT29 colon and in the assay with SK-MEL-5 melanoma was above 100 µM in each case. In addition, the TGI with HCT-15 colon, in the assay on OVCAR-4 ovarian and in the assay with SR leukemia was above 100 µM each time.
